Laboratory results from ChEMBL document CHEMBL1142285, “Indeno[1,2-c]isoquinolines as enhancing agents on all-trans retinoic acid-mediated differentiation of human myeloid leukemia cells” (2008).

What was measured:
Format in all cases: functional, cell-based
HL-60 [1] = assay: Antiproliferative activity against human HL60 cells after 72 hrs by MTT assay
HL-60 [2] = assay: Induction of differentiation in human HL60 cells after 72 hrs by NBT assay
NB-4 [3] = assay: Induction of differentiation in human NB4 cells after 72 hrs by NBT assay
NB-4 [4] = assay: Antiproliferative activity against human NB4 cells after 72 hrs by MTT assay

Measured: Activity

COc1ccc(Cn2c3c(c4cc(C)ccc4c2=O)C(C)c2ccccc2-3)cc1 (centres undefined)
active: HL-60 [1] Dose-dependent effect | HL-60 [2] Dose-dependent effect | NB-4 [3] Dose-dependent effect | NB-4 [4] Dose-dependent effect
